Assay results: a melting point compilation (Tetko et al.; mined from patent text by program, amines drawn as free bases though some values may be those of a salt)

Compound	melting point [°C]
O=C(Nc1ccc(OCCN2CCOCC2)c2ccccc12)c1cc(F)cc(N2CCCCC2)c1	150 to 151
Cc1ccc(OC2=C(Oc3ccc(C)cc3)C(F)(F)C(F)(F)C2(F)F)cc1	46 to 48
CCOC(=Nc1cccc(C(F)(F)F)c1)C(C)C	95 to 100
COC(=O)Cn1c(=O)c(=O)[nH]c2cc(N)c(Cl)cc21	> 260
Cc1cc(C#CC2(O)CN3CCC2CC3)cc(C)c1OCCOc1ccccc1 (stereo not drawn)	141 to 142
CN(C)CCSc1cc(NC(=O)OC(C)(C)C)c([N+](=O)[O-])cc1I	144
Cn1c(COc2ccc(CC3SC(=O)NC3=O)cc2)nc2ccc(Oc3ccc(NC(=O)Nc4ccc(C(F)(F)F)cc4)cc3)cc21 (stereo not drawn)	179 to 180
COc1cc2c(cc1OC)[C@@H]1CCCC[C@@H]1N=C2c1ccc(C(=O)OCC2CC2)cc1 (racemic)	147 to 148
NC(=O)NN=C(CCl)COc1ccc(Cl)cn1	115 to 117
Cc1ccc(Cl)c(Nc2ccccc2-c2noc(=O)[nH]2)c1Cl	209 to 210
Oc1ccc(SCc2cc(O)c(O)c(O)c2)cc1	158
O=C(Nc1ccc2ccc(Cl)nc2n1)c1cccc(F)c1	202
CCN(CC)C(=O)n1cnc(Sc2c(C)cc(C)c(C)c2OC)n1	138 to 139
COC(=O)c1ccc(C(=O)c2cc3c(cc2OCc2ccc(C(C)(C)C)cc2)C(C)(C)CCC3(C)C)cc1	168 to 170
O=S(=O)(c1ccccc1)N1CCN(C(c2ccccc2)c2ccc(Cl)cc2)CC1 (single isomer, unassigned; (-))	116 to 118
COC(=O)CCC(=O)Nc1cc(Cl)ccc1C(=O)OC	80 to 84
Cn1c2nc3ccccc3nc2c2cccc(C=O)c21	220
CC(=O)OC(CCc1cc(C(C)(C)C)c(O)c(C(C)(C)C)c1)CCc1cc(C(C)(C)C)c(O)c(C(C)(C)C)c1	82 to 85
COc1ccc(Cn2ccc3c(-c4ccco4)ncnc32)cc1	130 to 131
CN(CCc1ccc(Nc2ncc3c(n2)-c2ccccc2C(c2ccc(Cl)c(Cl)c2)C3)cc1)C1CCCCC1 (stereo not drawn)	130 to 131
CCOC(=O)Cc1ccc(-c2nc(COc3ccc(CCl)cc3OC)c(C)o2)cc1	121 to 122
CC(C)(C)OC(=O)c1nc(-c2ccc(Cl)cc2Cl)n(-c2ccc(Cl)cc2)c1C#N	210 to 212
COCc1c(NC2CC2)c([N+](=O)[O-])cc(F)c1N1CCN(C)CC1	89 to 90

Compound	melting point [°C]
COc1ccc(Br)c(C(=O)NNS(=O)(=O)c2ccccc2)c1	150 to 152
ClC1=Nc2ccccc2Sc2c1csc2Cl	163 to 165
O=C(Oc1ccccc1)c1cc(O)c(O)c(O)c1	190 to 191
CCN1CCN(c2cccc3ccc(-c4cccc(NS(C)(=O)=O)c4)cc23)CC1	100 to 101
Cc1onc(-c2ccccc2)c1-c1[nH]c2ccccc2c1CCCN(C)C	156 to 157
Nc1nc2ccccc2c2c1ncn2CCSc1ccccc1	233 to 235
Cc1scc2c1N(C(=O)N1CCC(CCCCN3CCCCC3)CC1)c1ccccc1NC2=O	209 to 210
Cc1nc2c(OCc3c(Cl)ccc(S(=O)(=O)N4CCC[C@H]4C(=O)NCCCNC(=O)c4ccc(C#N)cc4)c3Cl)cccn2c1Cl	115
O=C(NCCNCc1cc2cc(O)ccc2o1)C12CC3CC(CC(C3)C1)C2	140 to 143
O=C1CCN(Cc2cccnc2)CC1C(c1ccccc1)c1ccccc1 (stereo not drawn)	121 to 122
NS(=O)(=O)c1ccc(NC(=O)CCl)c(Cl)c1	162 to 164
COc1cc2c(cc1Nc1ncc(Cl)c(N[C@@H]3CCCC[C@H]3NS(C)(=O)=O)n1)CCN(C(=O)C(F)(F)F)CC2	98 to 107
CCOC(=O)NNc1cc(C)c(-c2cccc([N+](=O)[O-])c2)nn1	186 to 187
O=CNc1c2c(nc3ccccc13)CCc1cnn(-c3ccccc3)c1-2	> 250
COc1ccc(C2(C#Cc3cccc(N)c3)CCCC(=O)C2)cc1OC1CCCC1 (stereo not drawn)	100 to 102
CC(=O)Nc1nc(CCc2ccc(CN3CCNCC3)cc2)cs1	164 to 166
CC(O)(c1nc(-c2ccc(F)cc2)c(-c2ccc(F)cc2)[nH]1)C(F)(F)F (stereo not drawn)	191 to 192
O=C(NOC1CCCCO1)c1ccc(-c2ccc3ncnc(Nc4ccc(OCc5cccc(F)c5)c(Cl)c4)c3c2)o1 (stereo not drawn)	221
CCn1cc(C(=O)O)c(=O)c2cc(F)c(-c3cc(C)nc(C)c3)cc21	> 310
O=C1C2CCCN2S(=O)(=O)N1CSc1ccccc1 (stereo not drawn)	90.5 to 91.5
CC(CNC(=O)N(CCN(C)C(=O)OC(C)(C)C)CCC12CC3CC(CC(C3)C1)C2)Cc1ccncc1 (single isomer, unassigned; (+))	123 to 124
COC(=O)c1ccc(F)c2c1C=CCO2	73.5 to 74.5
CC(C)C[C@H](NC(=O)c1cccc(Cl)c1)C(=O)N[C@@H](C(C)C)[C@@H](O)c1c(-c2ccccc2)c1=O	179

Compound	melting point [°C]
O=C(Nc1ccc(C(=O)O)cc1)NN1CC=CCC1	> 240
COc1cc2c(c3c1OC(C)(C)C3)C(c1cccc(-c3ccc(NC(C)=O)nc3)c1)=NC(C)(C)C2	208 to 209
OCc1cccc(-n2cccc2)c1Br	78 to 80
Cc1ccc(-n2c(-c3ccc(C#C[Si](C)(C)C)cc3)ccc2-c2ccc(C#C[Si](C)(C)C)cc2)cc1	223 to 224
COc1cc(CCO[Si](C)(C)C(C)(C)C)c(C2=CC3CCC2N3C(=O)OC(C)(C)C)cn1 (stereo not drawn)	75 to 76
CCCCn1c(C)cc(=O)c(C(=O)Nc2ccccc2)c1-c1ccccc1	190 to 193
CCOC(=O)C1=C(C)NC(=S)N(C(=O)OCC)C1c1cccc2nonc12 (stereo not drawn)	144 to 146
CC(C)(C)OC(=O)C1(N)C=CC(C(=O)O)C1 (stereo not drawn)	126 to 127
COC(=O)C(=C(C)C)N1CC(NC(=O)COc2ccccc2)C1=O (stereo not drawn)	154 to 155
CN(C)C(=O)CC(N)=S	111 to 114
O=C1NCC(CCc2ccccc2Br)O1 (stereo not drawn)	93.5 to 94.5
COC(=O)Nc1nc2cc(C(c3ccc(F)cc3)n3cncn3)ccc2[nH]1 (stereo not drawn)	250
CC(C)OC(=O)c1nnc2n1-c1ccc(Cl)cc1C(c1ccccc1Cl)=NC2	229 to 230
COc1ccc(/C=C(\C)[N+](=O)[O-])cc1OCc1ccccc1	102 to 104
Cc1nc2cnccc2n1-c1ccc(COc2ccccc2C(=O)O)cc1	217 to 219
Cc1cccc(C)c1N1CCCNC1=S	249 to 251
O=C(CCc1ccc(O)cc1)OCCC(c1ccccc1)(c1ccccc1)c1ccccc1	105 to 107
CC(=O)Nc1cccc(-n2c(=O)c(CCCc3ccncc3)cc3cccnc32)c1	200 to 202
CN(Cc1ccccc1)c1nc(Cl)ncc1F	47 to 49
CCOc1cccc2c1OC(C(F)(F)F)C(C(=O)O)=C2 (stereo not drawn)	159 to 161
CCCCCC(C)C(C)c1cc(O)c2c(c1)oc(=O)c1ccncc12 (stereo not drawn)	122 to 123
CC#CCc1c(C)nc2cc(C)nn2c1N	215 to 219

Results, then the molecule that gave them:

melting point [°C]	Compound
109 to 110	CON(C)C(=O)/C=C/C(=C(c1ccc(F)cc1)c1ccc(F)cc1)C(C)C
245 to 247	CC1COCc2nc3c(N)nc4cc(CCC(=O)N5CCOCC5)ccc4c3n21 (stereo not drawn)
48 to 48.5	CC(=O)Oc1cc(CCc2ccccc2)cc(OC(C)=O)c1
201 to 202	COc1cc2oc(=O)c(C)c(C)c2cc1OCCN1CCN(c2cccc3[nH]ccc23)CC1
163 to 165	Cc1ccc(C(=O)NN(C(=O)c2cc(Cl)sc2Cl)C(C)(C)C)cc1
172 to 173	O=S(=O)(c1ccc(Cl)cc1)C(c1cc(F)ccc1F)c1cc(CO)ncc1Br (stereo not drawn)
90 to 93	Cc1ccc2nc(-c3ccccc3)cc(Cl)c2c1
252 to 255	O=C(NC1CC2CCC1C2)n1cc(F)c(=O)[nH]c1=O (stereo not drawn)
221	CC(C)(C)OC(=O)N1CCC(OCc2ccccc2)C1CC(O)Cn1cnc2ccncc2c1=O (stereo not drawn)
244 to 246	COc1ccc(Cn2c(=O)[nH]c3cc([N+](=O)[O-])ccc3c2=O)cc1
168 to 170	Nc1sc(-c2cccnc2)c(CN(C2CCCCC2)C2CCCCC2)c1C(=O)c1ccc(Cl)cc1
134 to 137	CCCc1nc2c(N)nc3cc(OCCOCCNS(C)(=O)=O)ccc3c2s1
102	CCOC(=O)C1(Br)Oc2ccccc2OC1Br (stereo not drawn)
169 to 170	O=C(O)COc1ccc(SCc2ccc(OC3CCc4cc(Cl)ccc43)cc2)c2c1CCC2 (stereo not drawn)
89 to 91	N#CC=Cc1ccc(Cl)cc1C(=O)c1ccccc1
108 to 110	OCC(O)COC(c1ccccc1)(c1ccccc1)c1ccccc1 (stereo not drawn)
51 to 53	CCCS(=O)c1ncc(C(F)(F)F)cc1Cl (stereo not drawn)
104 to 105	O=[N+]([O-])c1ccc(Cc2nnco2)cc1
200 to 201	Cc1c(CO)c(CO)c2n1Cc1c(c3ccccc3n1C)C2
217 to 218	CC(C)/[N+]([O-])=C/c1ccc(O)cc1
223 to 225	CS(=O)(=O)Nc1cc2oc(N)cc(=O)c2cc1Oc1ccccc1
82 to 84	O=C(OC(c1ccccc1)c1ccccc1)[C@H](O)CCc1ccccc1
160	COc1ccc(N=C(C#CSc2ccccc2)N2CCN(C)CC2)cc1
152 to 155	CN1CCCN(Cc2nc3ccccc3[nH]2)CC1
88 to 89	O=C1CCc2ccc(OCCCCN3CCCN(c4cccc(Cl)c4Cl)CC3)cc2N1
112	CC(=O)Nc1cccc2c1C(=O)OC2C (stereo not drawn)
90	O=c1c2ccccc2ncn1CCN1CCC(c2c[nH]c3ccccc23)CC1
> 200	O=C1N(Cc2ccccn2)c2cccc(-c3cncnc3)c2C12COc1cc3c(cc12)CCO3 (stereo not drawn)
205	O=c1[nH]cnc2cc(C(c3ccccc3)n3ccnc3)ccc12 (stereo not drawn)
66 to 67	CCOC(=O)Cc1cccc(Cc2nc3cc(F)cc(F)c3s2)c1
